Holding throughout (assay type): physicochemical
Data set [1] is described as follows: Cyclic voltammetry of C18-PTZ in 0.1 M FEC/LiTFSI. The protocol: Electrochemical characterization. CV studies were carried out to estimate the electrochemical properties of redox material (C18-PTZ) as well as the crossover of redox-active cathode material before and after long-term battery cycling. For CV measurements, 5 mM of C18-PTZ solution were prepared in 0.1 M FEC/LiTFSI electrolyte. A 3-mm glassy carbon was used as the working electrode and was polished with 50 nm Al2O3 before measurements. Platinum wire (0.5 mm) was used as the counter electrodes. A Ag/Ag^+ electrode was used as the reference electrode.
Electrochemical characterization. For the cyclic voltammetry (CV) measurements, C18-PTZ (5 mM) solutions were prepared in FEC/LiTFSI (0.1 M) electrolyte. A glassy carbon disk (CHI Instrument, 3 mm) was used as the working electrode and was polished with aqueous Al2O3(Pine Research Instrumentation, Inc., […]) before the measurements. A piece of Pt wire (Pine Research Instrumentation, Inc., thickness 0.5 mm, purity 99.99%) was used as the counter electrode while an Ag/Ag^+ (MTI Corp) electrode was used as the reference electrode. The CV measurements were performed using a Bio-Logic potentiostat. The charge/discharge performances were evaluated using Land and Bio-Logic potentiostats.

Data set [2] can be described thus: Solubility test of C18-PTZ in FEC/LiTFSI. As to conditions: in FEC/LiTFSI (1.2 M). The protocol: Solubility test. […] The solution was gradually added to a vial containing known amounts of C18-PTZ. Once a clear solution was just obtained, the volume of the electrolyte was determined by an analytical pipette. The solubility of organic compounds was calculated from the ratio of the molar amount to electrolyte volume. These processes are repeated twice, and the averaged values are presented.
Solubility Test. […] The solution was incrementally added to a vial containing known quantities of C18-PTZ. The addition continued until a clear solution was achieved, at which point the volume of the electrolyte was measured using an analytical pipette. Subsequently, the solubility of the organic compounds was calculated by finding the ratio of the molar amount of C18-PTZ to the volume of the electrolyte. This entire process was repeated twice to ensure accuracy, and the averaged values of the solubility were reported as the final result.

The nature of data set [3]: RDE linear sweep voltammetry of C18-PTZ in 0.1 M FEC/LiTFSI. The settings on record: 1 mM in 0.1 M FEC/LiTFSI. How it is done:
To investigate the electrochemical kinetics of C18-PTZ redox molecules, linear sweep voltammetry (LSV) was conducted using the rotating disk electrode (RDE) technique. The LSV curves of C18-PTZ were measured in electrolyte solutions containing 1.0 mM C18-PTZ in 0.1 M FEC/LiTFSI solution, and the results are presented in FIG. 68(a).
Calculation of diffusion coefficient and electron transfer rate. Linear sweep voltammetry (LSV) studies were carried out using a Pine modulated speed rotator with Biologic potentiostats. Rotating disk electrode (RDE, diameter: 5 mm), Pt wire electrode and Ag/Ag^+ electrode were used as the working, counter and reference electrodes, respectively. Before testing, the samples were purged with argon for 10 min. LSV dates were collected at different rotation rates ranging from 100 to 1600 rpm. The diffusion coefficient (Do) of electroactive materials were calculated from the Levich plot using Equation 1.
The kinetic rate constant is calculated by Equation 2.
The LSV investigations were conducted using a Pine modulated speed rotator paired with Biologic potentiostats. […] The diffusion coefficient (D) of electroactive materials was calculated from the Lévich plot using Equation 1. The kinetic rate constant is calculated by Equation 2.

A short description of data set [4]: Crossover study of C18-PTZ in the Design-I triphasic system under static conditions (UV-visible, CV). The settings on record: 0.5 M in FEC phase, 10-day period. The text has this: (§1) Selection of the anode and cathode materials. Achieving a high capacity for RFBs requires the selection of redox-active materials with high potential. In this study, Li metal was selected as the anode because of its low electrochemical potential (−3.04 V vs. a standard hydrogen electrode), high energy density, and theoretical capacity (~3,860 mAh/g). Graphite felt (GF) was selected as the cathode owing to its chemical inertness in nonaqueous electrolytes, high electrical conductivity, highly porous structure, and high specific surface area. […] The solubility properties of several redox-active catholyte compounds, including derivatives of phenothiazine, cyclopropenium, 2,2,6,6-tetramethylpiperidinyloxy (TEMPO), anthraquinone (AQ), and ferrocene, were evaluated as the three supporting electrolytes in the triphasic system (FIG. 88). […] The system was evaluated for the potential crossover of 0.5 M C18-PTZ dissolved in the FEC phase. […]
(§2) Selection of the anode and cathode materials. […] The solubility properties of several redox-active catholyte compounds, including derivatives of phenothiazine, cyclopropenium, 2,2,6,6-tetramethylpiperidinyloxy (TEMPO), anthraquinone (AQ), and ferrocene, were evaluated as the three supporting electrolytes in the triphasic system (FIG. 85). […] The system was evaluated for the potential crossover of 0.5 M C18-PTZ dissolved in the FEC phase. […]

Data set [5] is described as follows: Solubility of catholyte compounds in the three supporting electrolytes of the triphasic system.
From the text: as §1, §2

≈ marks a conversion by molar mass, not a printed value. Entries after “also recorded” stand apart in the source; their conditions may differ.

The term solubility denotes how much of the substance goes into solution per volume. Lower therefore signals a poorly soluble substance.

In turn, `CCCCCCCCCCCCCCCCCCN1c2ccccc2Sc2ccccc21` [C18-PTZ] displayed a redox couple potential in data set [1] (5 mM in 0.1 M FEC/LiTFSI) of 0.35 V vs. Ag/Ag^+. Also, in data set [1] (FEC/LiTFSI (0.1 M), 50 mV/s, 500 cycles), the “electrochemical stability on repeated CV cycling” value was “excellent electrochemical stability; also recorded: high electrochemical stability”. The compound further came in with a peak potential separation in data set [1] (scan rate 50 mV/s) of 68 mV. The peak potential separations in data set [1] (scan rate 50 mV/s, unit not given) is recorded as ~ 68. The “ratio of cathodic peak current (ipc) and anodic peak current (ipa)” value in data set [1] (scan rates 50 to 250 mV/s) is “approximately 1”. Besides, the solubility in data set [2] is 500 mM (≈ 226 mg/mL). Besides, in data set [3], the “kinetic rate constant (k0)” value is 0.00351 cm/s. In addition, the “diffusion coefficient D” value in data set [3] (Levich plot) was 6.23×10^−6 cm^2/s. The “crossover out of the FEC layer” value in data set [4] is on record as “no significant crossover”. In addition, the “solubility in TEGDME and NFTTS” value in data set [5] (anolyte and intermediate layers of triphasic system) is “poor solubility”. In data set [5] (catholyte solvent of triphasic system), the “solubility in FEC” value was “high solubility”.

(Values after patent US20260269287A1, “ALL-NONAQUEOUS MEMBRANE-FREE FLOW BATTERIES” (University of Cincinnati, priority 2023, published 2026).)
